Laboratory results taken from patent US20070299062A1 (The Procter & Gamble Company, priority 2006, published 2007).

Experiments:
MCH-1R = MCH-1R (UniProt Q99705); test: MCH-1R competition binding assay
Protocol: In vitro binding and function assays are performed on membranes derived from cells or tissues expressing endogenous MCH1R. Competition binding assays are performed to identify high affinity compounds. Briefly, either radiolabeled or europium labeled MCH with varying concentrations of competitor compound which are incubated with membranes expressing the receptor. Rat brain membrane or cell lines, including but not limited to human Kelly neuroblastoma cells, A-431 epidermoid cells, and rat PC-12 cells are known to express endogenous MCH1R and are used in the assay. Binding is allowed to proceed until equilibrium is reached then bound labeled MCH is separated from free MCH by capturing membranes onto a filter. The filters are washed to remove loosely associated MCH and labeled MCH is quantified. Data is analyzed and IC50 and Ki are calculated to determine compound affinity.

5-HT2c receptor = molecular target: T1, 5-HT2c receptor (Homo sapiens, UniProt P28335); test: 5-HT2c receptor binding assay (3H-mesulergine competition); conditions: 1 nM 3H-mesulergine; read-out: Ki (nM) binding data 5-HT2C
T1 construct: purchased Perkin-Elmer or Euroscreen (named only as possible suppliers)
T1 sequence (P28335 33-458): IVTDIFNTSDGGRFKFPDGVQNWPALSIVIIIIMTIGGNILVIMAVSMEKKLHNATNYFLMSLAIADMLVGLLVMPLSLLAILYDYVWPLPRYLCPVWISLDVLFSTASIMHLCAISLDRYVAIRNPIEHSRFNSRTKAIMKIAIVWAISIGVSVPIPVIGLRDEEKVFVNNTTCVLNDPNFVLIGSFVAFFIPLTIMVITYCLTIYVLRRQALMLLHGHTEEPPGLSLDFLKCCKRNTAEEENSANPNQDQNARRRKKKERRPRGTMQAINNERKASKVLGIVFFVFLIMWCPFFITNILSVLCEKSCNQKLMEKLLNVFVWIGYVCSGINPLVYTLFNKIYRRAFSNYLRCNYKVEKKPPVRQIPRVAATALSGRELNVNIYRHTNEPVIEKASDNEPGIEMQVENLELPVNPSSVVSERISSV
Protocol: MCH antagonist compounds are evaluated for binding to the serotonin 5-HT2c receptor to determine receptor selectivity. Binding activity is assessed using a competitive assay with ^3H-mesulergine (Perkin Elmer), a 5-HT2c selective ligand, on membrane containing the 5-HT2c receptor. Briefly, 1 nM ^3H-mesulergine and varying concentrations of the compound are incubated with 5-HT2c receptor membranes, following an incubation period, the membranes are washed and ^3H-mesulergine bound to membranes is measured in a liquid scintillation counter. The amount of bound ^3H-mesulergine at the varying concentration of competitor compound is used to derive the affinity (Ki) of the compound for the 5-HT2c receptor. 5-HT2c receptor containing membranes are readily available from several companies including Perkin-Elmer and Euroscreen.

How did the Ki (MCH-1R) turn out when “(S)-6-(4-Chlorophenyl)-3-(6-((4-morpholinopiperidin-1-yl)methyl)-1,2,3,4-tetrhaydronapthalene-2-yl)thieno[3,2,-d]pyrimidin-4-(3H)-one” was run?
Its Ki is 16 nM.

And the Ki (5-HT2c receptor)?
The Ki was > 100000 nM.
